We go through 5 molecules from ChEMBL document CHEMBL1132749, “Synthesis and antiproliferative evaluation of 7-aminosubstituted pyrroloiminoquinone derivatives” (Bioorg Med Chem Lett, 2000).

Structures are written as SMILES.

The test system of assay [1] is L1210. Briefly: Effect of compound on cellular cycle of L1210 leukemia cell; non specific. The class given is functional, cell-based. Conditions: Mus musculus.
Assay [2] has as its system L1210. Briefly: The compound was evaluated in vitro for its antiproliferative activity against the murine L1210 leukemia cell. Format: functional, cell-based. The following applies: Mus musculus.

Broadly, the IC50 is the midpoint of a concentration-inhibition curve. In the case of `O=C1C(NCCN2CCCC2)=CC2=NCCc3c[nH]c1c32`, the Effect result in the assay on L1210 [1] is reported as “non specific”. This molecule also returned a half-inhibitory concentration (IC50) in the assay on L1210 [2] of 380 nM.
The corresponding values for `NC1=CC2=NCCc3c[nH]c(c32)C1=O` [MAKALUVAMINE I] are “non specific” and 250 nM.
Regarding `O=C1C(NCCc2c[nH]c3ccccc23)=CC2=NCCc3c[nH]c1c32`, in the assay with L1210 [1], the Effect result was “non specific”. The molecule further yielded an IC50 in the assay with L1210 [2] of 5300 nM.
As for `O=C1C(NCCc2ccc(O)cc2)=CC2=NCCc3c[nH]c1c32`, the Effect result in the assay on L1210 [1] was “non specific”. Besides, inhibition in the assay on L1210 [2] was half-maximal at 2100 nM (IC50).
Turning to `CN(C)CCNC1=CC2=NCCc3c[nH]c(c32)C1=O`, the Effect result in the assay with L1210 [1] is “non specific”. The concentration for half-maximal inhibition (IC50) in the assay with L1210 [2] was found to be 300 nM.
